Measured values: a melting point compilation (Tetko et al.; mined from patent text by program, amines drawn as free bases though some values may be those of a salt)

| Structure (SMILES) | melting point [°C] |
| --- | --- |
| CN(CCCCC(=O)O)c1ccc([N+](=O)[O-])cc1C=O | 107 to 108 |
| CC(=O)c1cc(C(F)(F)F)cc(S(N)(=O)=O)c1 | 157 to 159 |
| Nc1ncc(S(=O)c2ccc(C(F)(F)F)cn2)s1 (configuration not stated) | 144 to 145 |
| NS(=O)(=O)c1ccc(C(=O)c2ccc(O)cc2)s1 | 183 to 190 |
| COc1cc(Oc2cccc(C(F)(F)F)c2)nc(C(=O)NN=C2CCCC2)c1 | 146 to 148 |
| CCCCCCCCCCCCCCCCc1cc(OC)nc(N(C)C)n1 | 49 to 50 |
| COc1ccc(CCl)c(C)c1OC | 67 to 68.5 |
| Cc1oc(Cl)cc1C(=O)O | 126 to 127 |
| CC(=O)C(=Cc1cccc([N+](=O)[O-])c1)C(=O)OCCBr | 94.5 to 95.5 |
| CC(C)(C)C(=O)c1sc(N)nc1-c1ccc(P(=O)(O)O)o1 | > 220 |
| O=C(O)C(Cl)CCCCCCCCCCCCC(Cl)C(=O)O (configuration not stated) | 71 to 72 |
| NNC1NS(=O)(=O)c2ccccc21 (configuration not stated) | 249 |
| CC1C(=S)Nc2c(F)cc(F)cc21 (configuration not stated) | 151 to 152 |
| Brc1ccc2c(c1)OCCN2C1CCOCC1 | 66.2 |
| Cc1noc(=O)n1C/C(F)=C\CCI | 58.1 to 58.6 |
| IC#CCSc1cccnc1 | 114 to 116 |
| Cc1cc(SCCCSc2nnnn2C)nc(N)n1 | 119 to 120 |

Next, values leading:

| melting point [°C] | Structure (SMILES) |
| --- | --- |
| 130 to 133 | O=C(O)Cc1ccc(O)c(OCc2ccccc2)c1 |
| 120 to 122 | CCOC(=O)c1cn(Cc2ccccc2OC)c2sc(-c3ccc(N)cc3)c(CN(C)Cc3ccccc3)c2c1=O |
| 194 to 196 | CCOC(=O)c1cc(-n2c(=O)[nH]c3c(c2=O)CSC3)ccc1Cl |
| 147 to 149 | COC(=O)c1ccc(-c2cc(CCNC(C)=O)c3cc(OC)ccc3c2)cc1 |
| 282 to 283 | Cc1nc2c(c3c1[nH]c1ccccc13)C(=NO)CC(C)C2 (configuration not stated) |
| 157 to 159 | CC(=NOCCOc1ccc(CC2SC(=O)NC2=O)cc1)c1ccc(O)cc1 (configuration not stated) |
| 188 to 190 | Cc1nc2cc3c(cc2o1)C1(CO3)C(=O)N(CC2CCCO2)c2ccccc21 (configuration not stated) |
| 188 to 190 | N#Cc1c(N2CCCCC2)cc(-c2cccc3ccccc23)c2c1-c1ccccc1C2 |
| 83 to 85 | CN1CCN(C2=Nc3ccccc3N(C)c3cscc32)CC1 |
| 120 to 122 | CCOc1c(Br)ccc(C(=O)CC(=O)C2CC2)c1N(C)S(C)(=O)=O |
| 59 to 60 | CCOC(=O)N1CCN(CCCCCCNc2cc(OC)cc3c(C)ccnc23)CC1 |
| 162 to 164 | O=S1(=O)C(c2ccsc2)=CCC=C1c1ccsc1 |
| 229 to 233 | Cc1nc(-c2ccc(F)cc2)c(-c2ccc(S(C)(=O)=O)cc2)s1 |
| 110 to 119 | COc1cc(C(=O)N2CCC(CCN3CCC(Nc4nc5ccccc5n4Cc4ccccn4)CC3)(c3ccc(F)cc3)C2)cc(OC)c1OC (configuration not stated) |
| 110 to 111 | O=c1c(-c2cccc(C(F)(F)F)c2)ccc2ccccn12 |
| 89 to 91 | O=C(C=Cc1cccnc1)NCCCCC1CCN(C2c3ccccc3CSc3ccccc32)CC1 (configuration not stated) |
| 54 | C#CCOCC(CC)(OC)c1cccc(OCc2ccc3ccccc3c2)c1 (configuration not stated) |
| 105 to 106 | CCOC(=O)/C=C/c1cn(-c2ccc(Cl)cn2)nc1C(C)C |
| 145 to 146 | Cc1oc(-c2ccccc2)nc1COc1cccc(COc2cncc(CO)c2)c1 |
| 174 to 175 | COc1ccc(N2CCN(c3cc(C)c4c(c3C)CC(C)(C)O4)CC2)cc1 |
| 182 to 185 | CCc1nc2c(N)nc3ccccc3c2n1CCCCS(C)(=O)=O |
| 240 to 243 | O=c1c2ccccc2nc(-c2cc(-c3ccc(Cl)cc3)c(N3CCOCC3)s2)n1-c1ccc(Cl)cc1 |
| 198 | O=C(Nc1cccc(Br)c1)Oc1ccc2c(c1)CCCN2 |
| 111 to 113 | CC(O)COc1ccc2c(c1)OC(C)(C)CC2=O (configuration not stated) |
| 68 to 83 | CCN(CC)c1ccc(N(c2ccc(N(C)C)cc2)C2(c3ccc(N(CC)CC)cc3C)OC(=O)c3ccccc32)cc1 (configuration not stated) |
